Laboratory results taken from patent US9745295B2, “Thiazole-substituted aminoheteroaryls as spleen tyrosine kinase inhibitors” (Merck Sharp & Dohme Corp., priority 2013, dated 2017).

Experiments:
[1] = phase II clinical trial, allergic rhinitis; cited from earlier work
PGD2 = details: dosed intranasally, phase I/II study, allergic rhinitis; cited from earlier work
[2] = molecular target: T1, recombinant human GST-SYK (Homo sapiens, UniProt P43405); test: Homogeneous Time-Resolved Fluorescence (HTRF) assay for the recombinant human Syk enzyme; format: biochemical; details: recombinant human GST-SYK 5 pM, ATP 25 μM, read-out: rhSYK IC50
T1 construct: purchased Carna Biosciences 08-176
Experimental: Homogeneous Time-Resolved Fluorescence (HTRF) Assay for the Recombinant Human Syk Enzyme
A recombinant GST-hSYK fusion protein was used to measure potency of compounds to inhibit human Syk activity. The recombinant human GST-SYK (Carna Biosciences #08-176) (5 pM final concentration) was incubated with various concentrations of the inhibitor diluted in DMSO (0.1% final concentration) for 10 minutes at room temperature in 15 mM Tris-HCl (pH 7.5), 0.01% tween 20, 2 mM DTT in 384 well plate format. To initiate the reaction the biotinylated substrate peptide (250 nM final concentration) that contains the phosphorylation site for Syk was added with magnesium (5 mM final concentration) and ATP (25 μM final concentration). Final volume of the reaction was 10 μL. Phosphorylation of the peptide was allowed to proceed for 45′ at room temperature. To quench the reaction and detect the phosphorylated product, 2 nM of a Europium-anti-phosphotyrosine antibody (Perkin Elmer #AD0161) and 70 nM SA-APC (Perkin-Elmer #CR130-100) were added together in 15 mM Tris pH 7.5, 40 mM EDTA, 0.01% tween 20. Final volume of the quenching solution was 10 μL.
The resulting HTRF signal was measured after 30 minutes on an EnVision (Perkin-Elmer) reader using a time-resolved fluorescence protocol. Table A below lists activities as IC50 values (nM) for representative compounds of the invention.

Compound	IC50 [2] [nM]	other results
Oc1cccc(Nc2ncc(F)c(Nc3cccc(O)c3)n2)c1 [Example R112]		efficacy versus placebo [1]: lack of efficacy versus placebo; change in PGD2 (PGD2): statistically significant decrease in PGD2; clinical safety (PGD2): safe across a range of indicators
Cc1cc(Nc2cnccn2)nc(-c2cnc(C3(O)CCCc4cc(C(=O)O)ccc43)s2)c1 (single isomer, unassigned) [Example 2.6, (R or S)-5-hydroxy-5-{5-[4-methyl-6-(pyrazin-2-ylamino)pyridin-2-yl]-1,3-thiazol-2-yl}-5,6,7,8-tetrahydronaphthalene-2-carboxylic acid]	0.0289	
COC(=O)C1CCC(O)(c2ncc(-c3nc(C)cc(Nc4cc(C(F)(F)F)ccn4)n3)s2)CC1(C)C (stereo not shown) [Example 1.10, methyl 4-hydroxy-2,2-dimethyl-4-[5-(4-methyl-6-{[4-(trifluoromethyl)pyridin-2-yl]amino}pyrimidin-2-yl)-1,3-thiazol-2-yl]cyclohexane-carboxylate]	8.85	
Cc1cc(Nc2nccc(C(F)(F)F)n2)cc(-c2cnc(C3(O)CCC3)s2)n1 [Example 2.1, 1-(5-(6-Methyl-4-((4-(trifluoromethyl)pyrimidin-2-yl)amino)pyridin-2-yl)thiazol-2-yl)cyclobutanol]	26.4	
COC(=O)C1CCC(O)(c2ncc(-c3cc(Nc4nccc(OC(C)C)n4)cc(C)n3)s2)CC1(C)C (stereo not shown) [Example 1.15, methyl 4-hydroxy-2,2-dimethyl-4-[5-(6-methyl-4-{[4-(1-methylethoxy)pyrimidin-2-yl]amino}pyridin-2-yl)-1,3-thiazol-2-yl] cyclohexane-carboxylate]	10.4	
Cc1cc(Nc2nccc(OC(C)C)n2)cc(-c2cnc(C3(O)CCC(C(=O)O)C(C)(C)C3)s2)n1 (stereo not shown) [Example 1.16, 4-hydroxy-2,2-dimethyl-4-[5-(6-methyl-4-{[4-(1-methylethoxy)pyrimidin-2-yl]amino}pyridin-2-yl)-1,3-thiazol-2-yl] cyclohexane-carboxylic acid]	0.697	
CCc1cc(Nc2cc(C)cc(-c3cnc(C4(O)CCCc5cc(C(=O)O)ccc54)s3)n2)ncn1 (single isomer, unassigned) [Example 2.11, (R or S)-5-(5-{6-[(6-ethylpyrimidin-4-yl)amino]-4-methylpyridin-2-yl}-1,3-thiazol-2-yl)-5-hydroxy-5,6,7,8-tetrahydronaphthalene-2-carboxylic acid]	0.0649	
COC(=O)C1CCC(O)(c2ncc(-c3cc(Nc4nccc(C(F)(F)F)n4)cc(C)n3)s2)CC1(C)C (stereo not shown) [Example 1.8, methyl 4-hydroxy-2,2-dimethyl-4-[5-(6-methyl-4-{[4-(trifluoromethyl)pyrimidin-2-yl]amino}pyridin-2-yl)-1,3-thiazol-2-yl] cyclohexane-carboxylate]	8.37	
CC1(C)CC(O)(c2ncc(-c3nccc(Nc4cc(C(F)(F)F)ccn4)n3)s2)CCC1C(=O)O (single isomer, unassigned) [Example 1.13, (1S,4R or 1R,4S)-4-hydroxy-2,2-dimethyl-4-[5-(4-{[4-(trifluoromethyl)pyridin-2-yl]amino}pyrimidin-2-yl)-1,3-thiazol-2-yl]cyclohexane-carboxylic acid]	0.564	
Cc1cc(Nc2cc(C(F)(F)F)ncn2)nc(-c2cnc([C@@]3(O)CC[C@H](C(N)=O)[C@H](C)C3)s2)c1 (relative stereo) [Example 1.19, rel-(1S,2R,4R or S)-4-hydroxy-2-methyl-4-[5-(4-methyl-6-{[6-(trifluoromethyl)pyrimidin-4-yl]amino}pyridin-2-yl)-1,3-thiazol-2-yl]cyclohexane-carboxamide]	0.42	

Second part, led by results:

IC50 [2] [nM]	Compound	other results
1.31	Cc1cc(Nc2nccc(C)n2)cc(-c2cnc(C(C)(O)[C@H]3CC[C@H](C(=O)O)CC3)s2)n1 (single isomer, unassigned) [Example 4.11, (trans)-4-((R or S)-1-hydroxy-1-(5-{6-methyl-4-[(4-methylpyrimidin-2-yl)amino]pyridin-2-yl}-1,3-thiazol-2-yl)ethyl]cyclohexane carboxylic acid]	
43.4	Cc1cc(-c2cnc(C3(O)CCC3)s2)nc(Nc2cc(C(F)(F)F)ccn2)n1 [Example 4.4, 1-[5-(6-methyl-2-{[4-(trifluoromethyl)pyridin-2-yl]amino}pyrimidin-4-yl)-1,3-thiazol-2-yl]cyclobutanol]	
7.15	COc1cc(Nc2nccc(C)n2)cc(-c2cnc(C(C)(O)[C@H]3CC[C@H](C(=O)O)CC3)s2)n1 (single isomer, unassigned) [Example 4.22, (trans)-4-((R or S)-1-hydroxy-1-(5-{6-methoxy-4-[(4-methylpyrimidin-2-yl)amino]pyridin-2-yl}-1,3-thiazol-2-yl)ethyl]cyclohexane carboxylic acid]	
2.32	COc1cc(Nc2cc(C)cc(-c3cnc(C4(O)CCC(C(=O)O)C(C)(C)C4)s3)n2)ncn1 (single isomer, unassigned) [Example 3.4, (1S,4R or 1R,4S)-4-hydroxy-4-(5-{6-[(6-methoxypyrimidin-4-yl)amino]-4-methylpyridin-2-yl}-1,3-thiazol-2-yl)-2,2-dimethylcyclohexane-carboxylic acid]	
35.2	OC1(c2ncc(-c3cccc(Nc4cnccn4)n3)s2)CCC1 [Example 4.2, 1-{5-[6-(pyrazin-2-ylamino)pyridin-2-yl]-1,3-thiazol-2-yl}cyclobutanol]	
1.82	CC(O)(c1ncc(-c2cncc(Nc3cc(C(F)(F)F)ccn3)n2)s1)[C@H]1CC[C@H](C(=O)O)CC1 (single isomer, unassigned) [Example 4.12, (trans)-4-((R or S)-1-hydroxy-1-[5-(6-{[4-(trifluoromethyl)pyridin-2-yl]amino}pyrazin-2-yl)-1,3-thiazol-2-yl]ethyl}cyclohexane carboxylic acid]	
4.4	Cc1cc(Nc2ncc(F)c(C)n2)cc(-c2cnc(C(C)(O)[C@H]3CC[C@H](C(=O)O)CC3)s2)n1 (single isomer, unassigned) [Example 4.20, (trans)-4-((R or S)-1-(5-{4-[(5-fluoro-4-methylpyrimidin-2-yl)amino]-6-methylpyridin-2-yl}-1,3-thiazol-2-yl)-1-hydroxyethyl]cyclo-hexanecarboxylic acid]	
0.608	Cc1cc(Nc2cnccn2)nc(-c2cnc([C@@]3(O)CC[C@H](C(=O)O)C(C)(C)C3)s2)c1 (single isomer, unassigned) [Example 3.8, (1S,4R or 1R,4S)-4-hydroxy-2,2-dimethyl-4-{5-[4-methyl-6-(pyrazin-2-ylamino)pyridin-2-yl]-1,3-thiazol-2-yl}cyclohexanecarboxylic acid]	
0.594	COc1ccnc(Nc2cc(C)nc(-c3cnc(C(C)(O)[C@H]4CC[C@H](C(=O)O)CC4)s3)c2)n1 (single isomer, unassigned) [Example 4.9, (trans)-4-((R or S)-1-hydroxy-1-(5-{4-[(4-methoxypyrimidin-2-yl)amino]-6-methylpyridin-2-yl}-1,3-thiazol-2-yl)ethyl]cyclohexane carboxylic acid]	
0.517	CC1(C)CC(O)(c2ncc(-c3cccc(Nc4cc(C(F)(F)F)ncn4)n3)s2)CCC1C(=O)O (single isomer, unassigned) [Example 3.6, (1S,4R or 1R,4S)-4-hydroxy-2,2-dimethyl-4-[5-(6-{[6-(trifluoromethyl)pyrimidin-4-yl]amino}pyridin-2-yl)-1,3-thiazol-2-yl]cyclohexanecarboxylic acid]	
